Literature values, collected in publication PMC4047818 (Biochemistry, 2014).
pKd: −log10 of the molar value. Like-named read-outs stand apart in the source and are kept apart here.

Experiments:
insulin receptor = system: insulin receptor; design: method as in 24 sources, one per row (each row's own in cited_ref): ref [58] = [58]; PMID 18048361; doi:10.1074/jbc.M709220200; Gauguin L.; Klaproth B.; Sajid W.; Andersen A. S.; McNeil K. A.; Forbes B. E.; De Meyts P. ( 2008 ) Structural basis for the lower affinity of the insulin-like growth factors for the insulin rec ||| ref [59] = [59]; PMID 9148904; doi:10.1074/jbc.272.20.12978; Kristensen C.; Kjeldsen T.; Wiberg F. C.; Schaffer L.; Hach M.; Havelund S.; Bass J.; Steiner D. F.; Andersen A. S. ( 1997 ) Alanine scanning mutagenesis of insulin . J. Biol. Chem. 272 , 1297 ||| ref [33] = [33]; PMID 17316105; doi:10.1089/dia.2006.0035; Becker R. H. A. ( 2007 ) Insulin glulisine complementing basal insulins: A review of structure and activity . Diabetes Technol. Ther. 9 , 109 – 121 . 17316105 10.1089/dia.2006.0035 ||| ref [60],[61] = [60]; PMID 3541911; doi:10.1042/bj2380345; Bajaj M.; Blundell T. L.; Horuk R.; Pitts J. E.; Wood S. P.; Gowan L. K.; Schwabe C.; Wollmer A.; Gliemann J.; Gammeltoft S. ( 1986 ) Coypu Insulin: Primary Structure, Conformation and Biolog || [61]; PMID 11445250; doi:10.1016/s0196-9781(01)00423-5; Conlon J. M. ( 2001 ) Evolution of the insulin molecule: Insights into structure-activity and phylogenetic relationships . Peptides 22 , 1183 – 1193 . 11445250 10.1016/s0196-9781(01)00423-5 ||| ref [66] = [66]; PMID 2268358; doi:10.1016/s0006-291x(05)80882-4; Burke G. T.; Hu S. Q.; Ohta N.; Schwartz G. P.; Zong L.; Katsoyannis P. G. ( 1990 ) Superactive insulins . Biochem. Biophys. Res. Commun. 173 , 982 – 987 . 2268358 10.1016/s0006-291x(05)80882-4 ||| ...; details: for relative affinity: insulin = 100
[1] = biological target: insulin receptor (Homo sapiens) (UniProt P06213); test: radioligand binding
Chain of UniProt P06213 (P06213 763-1382): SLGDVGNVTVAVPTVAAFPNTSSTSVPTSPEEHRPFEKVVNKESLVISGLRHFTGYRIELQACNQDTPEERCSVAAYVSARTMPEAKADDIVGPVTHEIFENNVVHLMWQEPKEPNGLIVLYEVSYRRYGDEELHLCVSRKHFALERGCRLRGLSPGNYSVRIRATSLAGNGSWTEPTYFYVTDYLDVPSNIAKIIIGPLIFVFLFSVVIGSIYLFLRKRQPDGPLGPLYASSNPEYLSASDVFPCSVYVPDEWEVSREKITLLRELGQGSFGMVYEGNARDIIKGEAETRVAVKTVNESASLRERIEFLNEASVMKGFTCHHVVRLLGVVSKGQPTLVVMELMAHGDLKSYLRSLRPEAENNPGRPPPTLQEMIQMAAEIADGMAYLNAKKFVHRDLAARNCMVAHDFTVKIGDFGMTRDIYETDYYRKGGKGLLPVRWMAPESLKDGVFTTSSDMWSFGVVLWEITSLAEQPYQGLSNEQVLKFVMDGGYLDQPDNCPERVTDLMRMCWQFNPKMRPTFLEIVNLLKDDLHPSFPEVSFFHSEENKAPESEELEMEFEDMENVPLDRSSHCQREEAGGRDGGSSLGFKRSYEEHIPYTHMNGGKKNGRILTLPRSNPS

Chain of insulin (P01308 90-110): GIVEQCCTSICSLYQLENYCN

In the case of “DKPwinsulin: monomeric insulin analogue containing three substitutions in the B-chain (AspB10, LysB28, ProB29)”, the relative affinity (insulin receptor; ref (15)) is listed as 160%.

For “[AlaB1]winsulin: literature insulin analogue, Ala at B1”, the relative affinity (insulin receptor; ref (6)) is listed as 79%.

For “[AlaB2]winsulin: literature insulin analogue, Ala at B2”, the relative affinity (insulin receptor; ref (6)) is listed as 110%.

In the case of “[AlaB3]-insulin: literature insulin analogue, Ala at B3”, the relative affinity (insulin receptor; ref (6)) is listed as 134% and the binding affinity (insulin receptor; relative to HI, ref [59]) is listed as 134%.

In the case of “[AlaB4]winsulin: literature insulin analogue, Ala at B4”, the relative affinity (insulin receptor; ref (6)) is given as 54%.

For “[AlaB5]-insulin: literature insulin analogue, Ala at B5”, the relative affinity (insulin receptor; ref (9)) is given as 31%.

In the case of “[AlaB5]DKPwinsulin: DKP-insulin analogue, Ala at B5”, the relative affinity (insulin receptor; ref (13)) is given as 129%.

In the case of “[AlaB6]winsulin: literature insulin analogue, Ala at B6”, the relative affinity (insulin receptor; ref (6, 14)) is listed as 1.4%.

In the case of “[ArgB5]winsulin: insulin with naturally occurring ArgB5 mutation”, the relative affinity (insulin receptor; ref (10)) is given as 40%.

In the case of “[AsnB5]winsulin: literature insulin analogue, Asn at B5”, the relative affinity (insulin receptor; ref (12)) is given as 46%.

For “[AspB5]-insulin: literature insulin analogue, Asp at B5”, the relative affinity (insulin receptor; ref (12)) is listed as 0.4% and the binding affinity (insulin receptor; relative to HI, ref [66]) is listed as 0.4%.

In the case of “[Cys(B4–B10),desB30]-insulin: literature insulin analogue with an additional B4–B10 disulfide bond, desB30”, the relative affinity (insulin receptor; ref (8)) is given as 132% and the affinity (insulin receptor; relative to HI, ref [31]) is given as 130%.

For “[GlyB6]winsulin: literature insulin analogue, Gly at B6”, the relative affinity (insulin receptor; ref (14)) is listed as 0.052%.

For “[LeuB8,desB30]winsulin: literature insulin analogue, Leu at B8, desB30”, the relative affinity (insulin receptor; ref (18)) is given as < 0.2%.

For “[MetB6]winsulin: literature insulin analogue, Met at B6”, the relative affinity (insulin receptor; ref (14)) is given as 15%.

In the case of “[PheB6]winsulin: literature insulin analogue, Phe at B6”, the relative affinity (insulin receptor; ref (14)) is given as 10%.

In the case of “[ProB3]-insulin: literature insulin analogue, Pro at B3”, the relative affinity (insulin receptor; ref (7)) is listed as 54% and the binding affinity (insulin receptor; relative to HI, ref [58]) is listed as 54%.

For “[SerB3]-insulin: literature insulin analogue, Ser at B3”, the relative affinity (insulin receptor; ref (7)) is given as 97% and the binding affinity (insulin receptor; relative to HI, ref [58]) is given as 97%.

For “[SerB8,desB30]winsulin: literature insulin analogue, Ser at B8, desB30”, the relative affinity (insulin receptor; ref (18)) is listed as 23% and the “IR affinity relative to HI” value (insulin receptor; published analogues, ref Table S5 of the Supporting Information) is listed as 23%.

For “[SerB8]DKPwinsulin: DKP-insulin analogue, Ser at B8”, the relative affinity (insulin receptor; ref (15, 17)) is given as 90%.

For “[ThrB8,desB30]winsulin: literature insulin analogue, Thr at B8, desB30”, the relative affinity (insulin receptor; ref (18)) is listed as < 0.2%.

For “[ValB6]winsulin: literature insulin analogue, Val at B6”, the relative affinity (insulin receptor; ref (14)) is listed as 3.3%.

For insulin (from UniProt P01308), the pKd [1] is given as 9.52.

For “insulin glulisine: [LysB3,GluB29]-insulin analogue”, the affinity (insulin receptor; relative to wild type, ref [33]) is given as “wild-type-like affinity”.
